Assay results published in patent US8193377B2, “(−)-epigallocatechin gallate derivatives for inhibiting proteasome” (The Hong Kong Polytechnic University, priority 2004, dated 2012).

Assays:
[1] = test system: VA-13 cells; assay: Immunostaining of apoptotic cells with anti-cleaved PARP-FITC; assay type: cell-based, human; conditions: 25 μM, 24 h
Experimental: Immunostaining of apoptotic cells was performed by addition of a FITC-conjugated polyclonal antibody that recognizes cleaved poly(ADP-ribose) polymerase (PARP) and visualized on an Axiovert 2 5 (Zeiss; Thornwood, N.Y.) microscope. Cells were grown to about 80% confluency in 60 mm dishes. VA-13 cells were then treated with VP-16, 2, or 2a (25 μM) for 24 h. Following treatment, both suspension and adhering cells were collected and washed twice in PBS pH 7.4. The cells were washed between all steps listed below and all washes are 1 min duration with PBS. Cells were then fixed in ice-cold 70% ethanol, permeabilized in 0.1% Triton-X-100 and blocked for 30 min in 1% bovine serum albumin (BSA) at room temperature. Incubation with the primary FITC-conjugated-p85/PARP antibody was for 30 min at 4° C. in the dark with mild shaking. Cell suspension was then transferred to glass slides in the presence of Vector Shield mounting medium with DAPI. Images were captured using AxioVision 4.1 and adjusted using Adobe Photoshop 6.0 software. Cell death was quantified by counting the number of apoptotic cells over the total number of cells in the same field. Data are mean of duplicate experiments ±SD.
(§1) It has been shown that proteasome inhibition can induce apoptosis in a wide variety of cancer cells, but not in normal, non-transformed cells (An B et al). Jurkat T cells are treated with 25 μM of each of the selected polyphenols and their protected analogs for 24 h to investigate their abilities to induce apoptotic cell death. […] The unprotected 2 induced much less apoptosis (21%), while 25 μM VP-16, used as a positive control, induced 92% apoptosis (FIGS. 10C and 10D). Counterstain with DAPI, which binds to the minor groove in A-T rich regions of DNA, was decreased drastically in apoptotic cells (FIG. 10C), consistent with DNA fragmentation in late stage apoptosis.

[2] = target: T1, proteasome in VA-13 cells (Homo sapiens, UniProt P28074); assay: Chymotrypsin-like proteasome activity in intact VA-13 cells; assay type: cell-based; conditions: 25 μM, 24 h
T1 construct: endogenous in cells; host or cells: VA-13 (SV40-transformed human fibroblasts)
Experimental: VA-13 or WI-38 cells were grown in 24 well plates (2 ml/well) to 70-80% confluency, followed by 24 h treatment with […] (−)-EGCG, 2, or 2a. […] Suc-Leu-Leu-Val-Tyr-AMC substrate was then added for 2.5 h at 37° C. and the chyrnotrypsin-like activity was measured as described above. Alternatively, cells were treated with each compound at 25 μM for 4 or 24 h, and harvested and lysed. Suc-Leu-Leu-Val-Tyr-AMC (40 μM) was then incubated with the prepared cell lysates for 2.5 h and the chymotrypsin-like activity was measured as described above.
The ability to induce apoptosis in tumor cells, but not normal cells is an important measure for novel anti-cancer drugs. To determine whether the protected compounds also affect normal cells, both VA-13 and WI-38 cells were treated with 25 μM of (−)-EGCG, 2, or 2a for 24 h and examined proteasome activity, nuclear morphological changes, and detachment. A differential decrease was found in the chyrnotrypsin-like activity of the proteasome in VA-13 cells over normal WI-38 cells (FIG. 12A). […] Conversely, the proteasome activity in WI-38 cells was decreased by only −5% with all three polyphenol treatments.

[3] = test system: LNCaP cells; assay: Soft agar colony formation assay; assay type: cell-based, human; conditions: 25 μM once at plating, 21 days
[4] = test system: Jurkat T cells; assay: Western blot for PARP cleavage in Jurkat T cells; assay type: cell-based, human; conditions: 25 μM, 24 h
Experimental: (§2) Whole cells extracts were prepared as described previously (An B, Goldfarb R H, Siman R, Dou Q P. Novel dipeptidyl proteasome inhibitors overcome Bc1-2 protective function and selectively accumulate the cyclin-dependent kinase inhibitor p27 and induce apoptosis in transformed, but not normal, human fibroblasts. Cell Death Differ 1998; 5: 1062-75.). Analysis of Bax, IKBa, p27, PAW, and ubiquitinated protein expression were performed using monoclonal or polyclonal antibodies according to previously reported protocols (An B et. al.).
as §1
To determine if the cell death observed (FIG. 16) was due to the induction of apoptosis, a similar experiment was performed in Jurkat T cells, followed by measurement of caspase-3 activation and PARP cleavage.

[5] = test system: VA-13 cells; assay: Nuclear staining (Hoechst) for apoptotic morphology, VA-13; assay type: cell-based, human; conditions: 25 μM, 24 h
Experimental: After each drug treatment, both detached and attached VA-13 and WI-38 cells were stained Hoechst 33342 to assess for apoptosis. Briefly, cells were washed 2× in PBS, fixed for 1 h with 70% ethanol at 4° C., washed 3× in PBS, and stained with […] Hoechst for 30 min in the dark at room temperature. Detached cells were plated on a slide and attached cells were visualized on the plate with a fluorescent microscope at 10× or 40× resolution (Zeiss, Germany). Digital Scientific obtained images with AxioVision 4.1 and adjusted using Adobe Photoshop 6.0.
Next, apoptotic nuclear morphology is examined after treatment with natural (−)-EGCG, 2, and 2a (FIG. 12B). […] A comparison among all the protected analogs was then performed using 25 μM for 24 h. […] All of the protected analogs induced apoptosis in transformed (VA-13), but not normal (WI-38) cells (FIGS. 12B and 12C).

[6] = test system: YT cells; assay: Western blot in non-transformed natural killer YT cells compared with Jurkat T cells; assay type: cell-based, human; conditions: 25 μM, 24 h
[7] = test system: Jurkat T cells; assay: Trypan blue cell death assay in Jurkat T cells; assay type: cell-based, human; conditions: 25 μM, 24 h
[8] = test system: LNCaP cells; assay: Apoptotic morphological changes, phase contrast; assay type: cell-based, human; conditions: 25 μM, 24 h
[9] = test system: ubiquitin-conjugated proteins in LNCaP cells; assay: Western blot for ubiquitin-conjugated proteins in LNCaP cells; assay type: cell-based, human; conditions: 25 μM, 24 h
Experimental: as §2
To determine if acetate-protected analogs are potent proteasome inhibitors in other cancer cell systems, prostate cancer LNCaP cells were treated for 24 h with 25 μM of (−)-EGCG, 1, 2a, or 3a, with DMSO as a control.

[10] = test system: ubiquitinated proteins, Bax, p27, IκBα in Jurkat T cells; assay: Western blot for ubiquitinated proteins and proteasome targets (Bax, p27, IκBα) in Jurkat T cells; assay type: cell-based, human; conditions: 25 μM, 24 h
Experimental: as §2
To determine what effects the synthetic tea analogs had on the proteasome in vivo, Jurkat cells were treated with 25 μM of each synthetic compound for either 4 or 24 h, with (−)-EGCG as a control (FIGS. 9A and 9B). […] This is consistent with the idea that protected analogs are potent inhibitors of the proteasome at an earlier time point and that after 24 h of treatment the ubiquitinated proteins are being depleted by deubiquitinating enzymes. […] The putative ubiquitinated IκBα band is still found in cells treated with 2a, 3a, and 4a (FIG. 9B, Lanes 9, 5, 7). The presumed ubiquinated IκBα band is now absent in the 24 h treatment, possibly due to deubiquitination (FIG. 9B). Actin was used as a loading control in this experiment.
The pro-apoptotic protein Bax and the cyclin-dependent kinase inhibitor p27 are natural proteasome targets. If the peracetate-protected polyphenols inhibit the intact proteasome activity, we would expect accumulation of Bax and p27 in these cells. To test this idea, Jurkat T cells were treated with both protected and unprotected compounds and lysates were analyzed by Western blot using specific antibodies to Bax and p27 (FIG. 15). After 4 h of treatment, the peracetate-protected analogs 24* and 19*, but not their unprotected analogs, were able to increase accumulation of both Bax (by 3- and 2.5-fold, respectively) and p27 (6- and 11-fold, respectively) (FIG. 15A). After 24 h treatment, Bax levels were increased in cells treated with all of the peracetate-protected compounds (13-, 12-, 40- and 36-fold, respectively, by 24*, 19*, 21* and 23*).

[11] = test system: MCF-7 cells; assay: MTT assay; assay type: cell-based, human; conditions: 24 h
Experimental: MTT was used to determine effects of polyphenols on overall proliferation of tumor cells. Human breast MCF-7 cells were plated in a 96 well plate and grown to 70-80% confluency, followed by addition of analogs for 24 h. MTT (1 mg/ml) in PBS was then added to wells and incubated at 37° C. for 4 hours to allow for complete cleavage of the tetrazolium salt by metabolically active cells. Next, the MTT was removed and 100 μl of DMSO was added and colorimetric analysis performed using a multilabel plate reader at 560 nm (Victor^3; Perkin Elmer). Absorbance values plotted are the mean from triplicate experiments.
Treated breast cancer (MCF-7) cells were then treated with 5 or 25 μM of peracetate-protected analogs for 24 h, followed by MTT analysis to determine their effects on cell proliferation. Compound 1 at 25 μM inhibited cellular proliferation by 40% (FIG. 11A).

SMILES | apoptotic cells (p85 cleaved PARP) [1] [%] | decrease in proteasome chymotrypsin-like activity [2] [%] | colony formation in soft agar [3] | apoptosis-specific PARP cleavage [4] | apoptotic nuclear morphology [5] | apoptosis (PARP cleavage), Jurkat T versus YT cells [6] | cell death (trypan blue) [7] [%] | apoptotic morphological changes [8] | ubiquitin-conjugated proteins [9] | accumulation of p27 [10] | inhibition of cellular proliferation ([11]; 5 μM) [%] | inhibition of cellular proliferation ([11]; 25 μM) [%]
CC(=O)Oc1cccc(C(=O)O[C@@H]2Cc3c(OC(C)=O)cc(OC(C)=O)cc3O[C@H]2c2cc(OC(C)=O)c(OC(C)=O)c(OC(C)=O)c2)c1 (relative stereo) [Compound 2a, (2S*,3R*)-trans-5,7-Bis(acetyloxy)-2-[3,4,5-tris(acetyloxy)phenyl]chroman-3-yl 3-acetyloxybenzoate] | 73 | 92 | most potent inhibitors of colony formation | induced apoptosis-specific PARP cleavage | markedly induced apoptosis | only Jurkat cells underwent apoptosis | 99 | dramatic round-up, detachment, and cellular fragmentation | greatest increase | Accumulation of p27 | 50 | 70
CC(=O)Oc1ccc(C(=O)O[C@@H]2Cc3c(OC(C)=O)cc(OC(C)=O)cc3O[C@H]2c2cc(OC(C)=O)c(OC(C)=O)c(OC(C)=O)c2)cc1 (relative stereo) [Compound 3a, (2S*,3R*)-trans-5,7-Bis(acetyloxy)-2-[3,4,5-tris(acetyloxy)phenyl]chroman-3-yl 4-(acetyloxy)benzoate] | – | – | – | induced apoptosis-specific PARP cleavage | – | – | 57 | dramatic round-up, detachment, and cellular fragmentation | greatest increase | Accumulation of p27 | 50 | 70
